In the supplement of paper PMC10290057:
Counter-ions that a name gives are not always drawn.

Tests used:
HCT116 [1] = assay: efficacy (fitted maximal change in viability relative to DMSO control); higher = less cytotoxic (negative = loss of viability); conditions: 48 h
HCT116 [2] = assay: AC50 cell viability (CellTiter-Glo); higher = less potent; conditions: 48 h
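Throughout, for AC50 cell viability (CellTiter-Glo): HCT116 colorectal carcinoma cells screened at five concentrations per compound, luminescent viability scaled between DMSO wells and empty wells on each plate, curves fitted per compound.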
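Throughout, for efficacy (fitted maximal change in viability relative to DMSO control): Luminescence-based viability readout, five doses per compound, normalized against on-plate DMSO and empty-well controls, followed by dose-response curve fitting for every drug.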

Structure (SMILES)	efficacy (HCT116 [1])	AC50 cell viability (HCT116 [2])
CC(C)(C)NC(=O)Nc1cccc(Nc2ncc(F)c(NC(C)(C)CO)n2)c1 [Bayer-18]	-54.8%	18.6 µM
Cc1c(-c2ccc(O)cc2)n(Cc2ccc(OCCN3CCCCCC3)cc2)c2ccc(O)cc12 [Bazedoxifene]	-101%	20.9 µM
O=C(/C=C/c1cccc([S+](=O)([O-])Nc2ccccc2)c1)NO [Belinostat]	-87.7%	0.525 µM
CC(C)NC(=O)[C@H]1CC[C@@H](n2c(NC(=O)c3ccc(F)cc3)nc3ccc(CN4CCC(C(C)(C)O)CC4)cc32)CC1 [Belizatinib]	-92.8%	7.23 µM
CC[C@@]1(O)C(=O)OCC/2=C1/C=C/3N(CC4=C(CCNC(C)C)C5=CC=CC=C5N=C34)C2=O [Belotecan]	-80.8%	0.0166 µM
Nc1nc(Nc2ccc3c(c2)CC[C@@H](N2CCCC2)CC3)nn1-c1cc2c(nn1)-c1ccccc1CCC2 [Bemcentinib]	-108%	14.8 µM
N/C(=N\C(=O)c1nc(Cl)c(N)nc1N)NCc1ccccc1 [Benzamil]	-81%	20.9 µM
CC(C)COCC(CN(Cc1ccccc1)c1ccccc1)N1CCCC1 (centres undefined) [Bepridil]	-104%	16.6 µM
COc1ccc2cc3[n+](cc2c1OC)CCc1cc2c(cc1-3)OCO2 [Berberine]	-96.9%	14.8 µM
CNCc1ccc(-c2cc(-c3nc(-c4ccc([S+](=O)([O-])C(C)C)cc4)cnc3N)on2)cc1 [Berzosertib]	-63%	10.5 µM
C[N+](C)(C)CC(=O)O [Betaine]	-51.8%	20.9 µM
Nc1cc(C(F)(F)F)c(-c2nc(N3CCOCC3)nc(N3CCOCC3)n2)cn1 [Bimiralisib]	-60.2%	1.86 µM
CC1=C(C)C\2=C(S1)[N]3C(=NN=C3C(CC(=O)NC4=CC=C(O)C=C4)\N=C2C5=CC=C(Cl)C=C5)C (centres undefined) [Birabresib]	-80.8%	0.833 µM
O=C\1NC(=O)\C(=C1C2=C[NH]C3=C2C=CC=C3)C4=C[NH]C5=C4C=CC=C5 [Bisindolylmaleimide]	-85.7%	18.6 µM
Cc1c(N)nc([C@H](CC(N)=O)NC[C@@H](N)C(N)=O)nc1C(=O)N[C@H](C(=O)N[C@@H](C)[C@H](O)[C@@H](C)C(=O)N[C@@H](C(=O)NCCc1nc(-c2nc(C(=O)NCCC[S+](C)C)cs2)cs1)[C@@H](C)O)C(O[C@H]1O[C@H](CO)[C@H](O)[C@@H](O)[C@H]1O[C@H]1O[C@H](CO)[C@@H](O)[C@H](OC(N)=O)[C@@H]1O)c1c[nH]cn1 (some centres undefined) [Bleomycin sulfate]	-34.2%	1.62 µM
CC(C)C[C@H](NC(=O)[C@H](Cc1ccccc1)NC(=O)c1cnccn1)B(O)O [Bortezomib]	-94.1%	0.0132 µM
COc1cc(Nc2c(C#N)cnc3cc(OCCCN4CCN(C)CC4)c(OC)cc23)c(Cl)cc1Cl [Bosutinib]	-93.7%	4.68 µM
Cc1c(-c2ccc(-c3ccccc3F)cc2)nc2ccc(F)cc2c1C(=O)O [Brequinar]	-62.1%	0.209 µM
COc1cc(OC)c(/C=C/[S+](=O)([O-])Cc2ccc(OC)c(OP(=O)(O)O)c2)c(OC)c1 [Briciclib]	-61.6%	0.0468 µM

Structure (SMILES)	efficacy (HCT116 [1])	AC50 cell viability (HCT116 [2])
COc1cc(N2CCC(N3CCN(C)CC3)CC2)ccc1Nc1ncc(Cl)c(Nc2ccccc2P(C)(C)=O)n1 [Brigatinib]	-75.3%	0.525 µM
Cc1ccc(Sc2ccccc2N2CCNCC2)c(C)c1 [Brintellix]	-92.6%	11.8 µM
Cc1cc2c(F)c(Oc3ncnn4cc(OC[C@@H](C)O)c(C)c34)ccc2[nH]1 [Brivanib]	-80.3%	9.34 µM
COC(=O)[C@@]12OC[C@]34[C@H]([C@@H](O)[C@@H]1O)[C@@]1(C)CC(=O)C(O)=C(C)[C@@H]1C[C@H]3OC(=O)[C@H](OC(=O)/C=C(\C)C(C)C)[C@@H]24 [Bruceantin]	-71.9%	0.00833 µM
CCCC1OC2C[C@H]3[C@@H]4CCC5=CC(=O)C=C[C@]5(C)[C@H]4C(O)C[C@]3(C)[C@]2(C(=O)CO)O1 (some centres undefined) [Budesonide]	-52.3%	18.6 µM
Clc1ccc(CCC(Cn2ccnc2)Sc2c(Cl)cccc2Cl)cc1 (centres undefined) [Butoconazole nitrate]	-51.6%	20.9 µM
COc1ccc([S+](=O)([O-])Nc2cc(-c3c(O)ccc4ccccc34)c(O)c3ccccc23)cc1 [C-188-9]	-95.1%	26.3 µM
CCCNC(=O)[C@H]1O[C@@H]1C(=O)N[C@H](C(=O)N1CCC[C@H]1C(=O)OC)C(C)CC (some centres undefined) [CA-074 Me]	-88.8%	18.6 µM
OCCNC1CCCc2c1[nH]c1ccc(-c3ccccc3)cc21 (centres undefined) [CASIN]	-95.3%	8.33 µM
Cc1cc2c(C(N)=O)cccc2n1-c1nc2c(c(NCc3ccccc3)n1)COCC2 [CB-5083]	-88.7%	0.833 µM
CC(=O)c1ccc2c(c1)c1cc(C(C)=O)ccc1n2CCNC(C)C [CBL-0137]	-69.6%	0.417 µM
CCN1C(=O)C\N=C/2N\C=C(/N=C12)C3=C(C)N=C(C=C3)C4=NN=C[NH]4 [CC-115]	-71%	7.42 µM
CO[C@H]1CC[C@H](N2C(=O)CNc3ncc(-c4ccc(C(C)(C)O)nc4)nc32)CC1 [CC-223]	-85.5%	9.34 µM
c1cc(OCCN2CCCCC2)cc(-c2n[nH]c3ccc(-c4nc[nH]n4)cc23)c1 [CC-401]	-70.1%	14.8 µM
Cc1ccc(NC(=O)NCc2ccc3c(c2)CN(C2CCC(=O)NC2=O)C3=O)cc1Cl (centres undefined) [CC-885]	-42.4%	0.0934 µM
COC1CC(C(=O)c2ccc3c(N)ncc(-c4ccc(-c5cnn(C)c5)cc4)c3n2)C1 (centres undefined) [CDK8i-51]	-34.9%	5.25 µM
Cc1ccc(Nc2cc(-c3cccc(N4C(=O)c5ccccc5C4=O)c3)ncn2)cc1N[S+](C)(=O)[O-] [CDK9 Inhibitor]	-73.6%	20.9 µM
COc1cc2c(cc1OC(C)C)[C@H](c1ccc(Cl)cc1)N(c1ccc(N(C)C[C@H]3CC[C@H](N4CCN(C)C(=O)C4)CC3)cc1)C(=O)C2 [CGM-097]	-123%	14.8 µM
ClC1=CC\2=C(NC(=O)\C(=C2N[C@@H]3CN4CCC3CC4)C5=NC6=C([NH]5)C=CC=C6)C=C1 [CHIR-124]	-80.9%	0.833 µM

Structure (SMILES)	efficacy (HCT116 [1])	AC50 cell viability (HCT116 [2])
Cn1c(Nc2ccc(C(F)(F)F)cc2)nc2cc(Oc3ccnc(-c4nc(C(F)(F)F)c[nH]4)c3)ccc21 [CHIR-265]	-108%	5.25 µM
CC(=O)Nc1cc(Oc2ccc3c(nc(Nc4ccc(F)cc4F)n3C)c2C)ccn1 [CHZ868]	-67.4%	0.833 µM
OC(=O)/C1=C/CCN(CCOC(C2=CC=C(C=C2)C(F)(F)F)C3=CC=C(C=C3)C(F)(F)F)C1 [CI-966]	-37.1%	18.6 µM
CC(C)n1cnc2c(NCCCCCCNC(=O)OC(C)(C)C)nc(NCCO)nc21 [CK-59]	-79.7%	26.3 µM
COc1c(C)cnc(Cn2cnc3c(Cl)nc(N)nc32)c1C [CNF-2024]	-57%	0.148 µM
C=CC(=O)Nc1cccc(Nc2nc(Nc3ccc(Oc4ccnc(C(=O)NC)c4)cc3)ncc2F)c1 [CNX-774]	-111%	14.8 µM
C=CC(=O)Nc1cccc(Nc2nc(Nc3ccc(NC4CN(CCF)C4)cc3OC)ncc2C(F)(F)F)c1 [CNX-2006]	-105%	10.5 µM
CC1=C(C)C\2=C(S1)[N]3C(=NN=C3C(CC(N)=O)\N=C2C4=CC=C(Cl)C=C4)C (centres undefined) [CPI-203]	-62.8%	0.295 µM
CC1=C(C)C\2=C(S1)[N]3C(=NN=C3[C@H](CC(N)=O)\N=C2C4=CC=C(Cl)C=C4)C [CPI-203]	-58.5%	0.372 µM
Cc1noc2c1-c1ccccc1C(c1ccc(Cl)cc1)=N[C@H]2CC(N)=O [CPI-0610]	-65.4%	1.05 µM
C[C@@H]1CC(=O)Nc2cccc(-c3ccc4c(c3)c(-c3cnn(C)c3)nn4C)c2N1 [CPI-637]	-82.6%	11.8 µM
C[C@@H]1CC(=O)Nc2cccc(-c3cnn(C(C)(C)C)c3)c2N1 [CPI-703]	-37.4%	16.6 µM
O=C(NO)C1(C[S+](=O)([O-])c2ccc(Oc3ccc(Cl)cc3)cc2)CCOCC1 [CTS-1027]	-61.5%	20.9 µM
C#Cc1cccc(Nc2ncnc3cc(OC)c(OCCCCCCC(=O)NO)cc23)c1 [CUDC-101]	-81.3%	0.332 µM
CN(C)c1cc2c(cc1Sc1nc3c(N)nccc3n1CCNCC(C)(C)C)OCO2 [CUDC-305]	-66.5%	0.468 µM
COc1ccc(-c2nc(N3CCOCC3)c3sc(CN(C)c4ncc(C(=O)NO)cn4)cc3n2)cn1 [CUDC-907]	-96.8%	0.0372 µM
COc1ccc(CNc2nc(N(CCO)CCO)nc3c2ncn3C(C)C)cc1 [CVT-313]	-54.3%	3.32 µM
CN1CCCN(CC1)C2=CC=C3C(=O)\C(=C/4SC5=C(C=CC=C5)N4C3=N2)C(=O)NCC6=CN=C(C)C=N6 [CX-5461]	-49.8%	1.35 µM
CN1CCCN(C(=O)c2cccc(-c3ccc(/C=C4/C(=O)Nc5ccc(Cl)cc54)o3)c2)CC1 [CX-6258]	-97.8%	7.42 µM
